Data published in ChEMBL document CHEMBL5584248, “Synthesis and biological characterization of an orally bioavailable lactate dehydrogenase-A inhibitor against pancreatic cancer” (Eur J Med Chem, 2024).
Calls of active or inactive are those of the source. The rule behind the calls is not given here.

Tests used:
[1] = molecular target: L-lactate dehydrogenase A chain (Homo sapiens, UniProt P00338); assay: Inhibition of human LDH-A incubated for 10 mins in presence of […] by fluorescence based reader assay
[2] = molecular target: L-lactate dehydrogenase B chain (Homo sapiens, UniProt P07195); assay: Inhibition of human LDH-B incubated for 10 mins in presence of […] by fluorescence based reader assay
L-lactate dehydrogenase B chain, sequence (P07195 whole entry): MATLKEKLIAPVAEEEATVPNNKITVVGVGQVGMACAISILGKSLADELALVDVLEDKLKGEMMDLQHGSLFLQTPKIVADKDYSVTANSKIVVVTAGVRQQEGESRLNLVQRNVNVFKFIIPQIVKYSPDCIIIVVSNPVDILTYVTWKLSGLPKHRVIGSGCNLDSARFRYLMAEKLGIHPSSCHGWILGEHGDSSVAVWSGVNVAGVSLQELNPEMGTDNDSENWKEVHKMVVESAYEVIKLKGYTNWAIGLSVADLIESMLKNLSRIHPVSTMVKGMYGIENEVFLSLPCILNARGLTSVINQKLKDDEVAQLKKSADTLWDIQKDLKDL

[3] = Metabolic stability in mouse liver microsomes assessed as compound remaining after 60 mins; assay type: ADME, Microsome; details: read-out: Stability
[4] = Metabolic stability in mouse liver microsomes assessed as compound remaining after 20 mins; assay type: ADME, Microsome; details: read-out: Stability
[5] = Metabolic stability in human liver microsomes assessed as compound remaining after 30 mins; assay type: ADME, Microsome; details: read-out: Stability
MIA PaCa-2 [6] = assay: Reduction in lactate production in human MIA PaCa-2 cells incubated for 6 hrs by colorimetric assay; assay type: functional, cell-based; details: dose 15-30 µM
MIA PaCa-2 [7] = assay: Reduction in total ATP production in human MIA PaCa-2 cells at 10 uM incubated for 48 hrs by Celltiter-glo assay; assay type: functional, cell-based
[8] = Cmax in CD1 mouse at 5 mg/kg, po; assay type: ADME, organism-based; details: in vivo
MIA PaCa-2 [9] = assay: Antiproliferative activity against human MIA PaCa-2 cells incubated for 48 hrs by Hoechst 33342 and SYTOX green staining based confocal imaging analysis; assay type: functional, cell-based; details: MIA PaCa-2, 48 h
[10] = AUC(0 to infinity) in CD1 mouse at 5 mg/kg, po; assay type: ADME, organism-based; details: in vivo
MIA PaCa-2 [11] = assay: Reduction in intracellular lactate production in human MIA PaCa-2 cells at 15 uM incubated for 6 to 24 hrs by colorimetric assay; assay type: functional, cell-based; details: time 6-24 hrs
[12] = Metabolic stability in mouse liver microsomes assessed as half-life; assay type: ADME, Microsome
[13] = Metabolic stability in human liver microsomes assessed as intrinsic clearance per mg protein; assay type: ADME, Microsome
[14] = Thermodynamic solubility in PBS at pH 7.4; assay type: physicochemical; details: buffer
[15] = Tmax in CD1 mouse at 5 mg/kg, po; assay type: ADME, organism-based; details: in vivo
[16] = Metabolic stability in human liver microsomes assessed as compound remaining after 10 mins; assay type: ADME, Microsome; details: read-out: Stability
[17] = Half-life in CD1 mouse at 5 mg/kg, po; assay type: ADME, organism-based; details: in vivo
MIA PaCa-2 [18] = assay: Synergistic antiproliferative activity against human MIA PaCa-2 cells at 20 uM incubated for 48 hrs in presence of phenformin by fluorescence based confocal imaging analysis; assay type: functional, cell-based
[19] = Metabolic stability in mouse liver microsomes assessed as intrinsic clearance per mg protein; assay type: ADME, Microsome
PANC-1 = assay: Antiproliferative activity against human PANC-1 cells incubated for 48 hrs by Hoechst 33342 and SYTOX green staining based confocal imaging analysis; assay type: functional, cell-based; details: PANC-1, 48 h
MIA PaCa-2 [20] = assay: Reduction in citric acid level in human MIA PaCa-2 cells at 15 uM incubated for 24 hrs by UPLC-MS analysis; assay type: functional, cell-based
[21] = Cmax in CD1 mouse at 1 mg/kg, iv; assay type: ADME, organism-based; details: in vivo
[22] = Metabolic stability in human liver microsomes assessed as compound remaining after 60 mins; assay type: ADME, Microsome; details: read-out: Stability
[23] = Metabolic stability in human liver microsomes assessed as compound remaining after 20 mins; assay type: ADME, Microsome; details: read-out: Stability
[24] = Lipophilicity, logP of compound; assay type: physicochemical; details: octanol/water
[25] = Clearance in CD1 mouse at 1 mg/kg, iv; assay type: ADME, organism-based; details: mouse, in vivo, iv, 1 mg/kg
MIA PaCa-2 [26] = assay: Reduction in total ATP production in human MIA PaCa-2 cells at 15 to 30 uM incubated for 48 hrs by Celltiter-glo assay; assay type: functional, cell-based; details: dose 15-30 µM
[27] = Volume of distribution in CD1 mouse at 1 mg/kg, iv; assay type: ADME, organism-based; details: in vivo
MIA PaCa-2 [28] = assay: Reduction in total ATP production rate in human MIA PaCa-2 cells at 15 to 30 uM incubated for 24 hrs by Seahorse assay; assay type: functional, cell-based; details: dose 15-30 µM
MIA PaCa-2 [29] = assay: Reduction in pyruvate level in human MIA PaCa-2 cells at 15 uM incubated for 6 to 24 hrs by UPLC-MS analysis; assay type: functional, cell-based; details: time 6-24 hrs
[30] = Metabolic stability in human liver microsomes assessed as half-life; assay type: ADME, Microsome
[31] = system: Pancreatic cancer organoid; assay: Antiproliferative activity against human Pancreatic cancer organoid after 72 hrs by MTS assay; assay type: functional, tissue-based
[32] = Antiproliferative activity against mouse FC-1199 cells incubated for 48 hrs by Hoechst 33342 and SYTOX green staining based confocal imaging analysis; assay type: functional, cell-based; details: FC-1199, 48 h
MIA PaCa-2 [33] = assay: Inhibition of compensatory glycolysis in human MIA PaCa-2 cells at 10 to 30 uM; assay type: functional, cell-based; details: dose 10-30 µM
[34] = Metabolic stability in mouse liver microsomes assessed as compound remaining after 10 mins; assay type: ADME, Microsome; details: read-out: Stability
MIA PaCa-2 [35] = assay: Inhibition of basal glycolysis in human MIA PaCa-2 cells at 10 to 30 uM; assay type: functional, cell-based; details: dose 10-30 µM
[36] = Cytotoxicity against HPNEs incubated for 48 hrs by Hoechst 33342 and SYTOX green staining based confocal imaging analysis; assay type: toxicity, cell-based; details: human, HPNE cells
[37] = Oral bioavailability in CD1 mouse at 5 mg/kg; assay type: ADME, organism-based; details: in vivo
[38] = AUC(0 to infinity) in CD1 mouse at 1 mg/kg, iv; assay type: ADME, organism-based; details: in vivo
MIA PaCa-2 [39] = assay: Reduction in isocitric acid level in human MIA PaCa-2 cells at 15 uM incubated for 24 hrs by UPLC-MS analysis; assay type: functional, cell-based
MIA PaCa-2 [40] = assay: Reduction in glycolytic ATP production rate in human MIA PaCa-2 cells at 15 to 30 uM incubated for 24 hrs by Seahorse assay; assay type: functional, cell-based; details: dose 15-30 µM
[41] = Half-life in CD1 mouse at 1 mg/kg, iv; assay type: ADME, organism-based; details: in vivo
[42] = Metabolic stability in mouse liver microsomes assessed as compound remaining after 30 mins; assay type: ADME, Microsome; details: read-out: Stability
MIA PaCa-2 [43] = assay: Reduction in succinic acid level in human MIA PaCa-2 cells at 15 uM incubated for 6 hrs by UPLC-MS analysis; assay type: functional, cell-based

## O=C(CC(C(=O)O)c1ccc(C(F)(F)F)cc1)Nc1ccc(N2CCOCC2)c(Cl)c1 (stereo unspecified)
[1]
  IC50: > 100 µM
[2]
  IC50: > 100 µM

## COC(=O)C(CC(=O)Nc1ccc(C(=O)c2nccn2C)cc1)c1ccc(OC)cc1 (stereo unspecified)
[1]
  IC50: 50 µM

## O=C(CC(C(=O)O)c1ccc(C(F)(F)F)cc1)Nc1ccc(-c2cccs2)cc1 (stereo unspecified)
[1]
  IC50: > 100 µM
[2]
  IC50: > 100 µM

## COC(=O)C(CC(=O)Nc1ccc(C(=O)c2ccccc2)cc1)c1ccc(C(F)(F)F)cc1 (stereo unspecified)
[1]
  IC50: 15.7 µM

## O=C(O)CC(NC(=O)CCc1ccccc1)c1cccc(Cl)c1 (stereo unspecified)
[1]
  IC50: > 100 µM
[2]
  IC50: > 100 µM

## Cn1ccnc1C(=O)c1ccc(NC(=O)CC(C(=O)O)c2ccc(C(F)(F)F)cc2)cc1 (stereo unspecified)
[3]
  remaining at 1 h: 88.4%
[4]
  remaining at 20 min: 96%
[5]
  remaining at 0.5 h: 90.5%
MIA PaCa-2 [6]
  Activity: Dose-Dependent Effect
MIA PaCa-2 [7]
  Activity: inactive
[8]
  Cmax: 10.4 µM
MIA PaCa-2 [9]
  IC50: 14.1 µM
[10]
  AUC(0-inf): 36.4 µM·h
MIA PaCa-2 [11]
  Activity: Active
[12]
  t1/2: > 1 h
[13]
  CLint: < 23 µL/min/mg
[14]
  Therm_solubility: 7685 µg/mL
[15]
  Tmax: 0.5 h
[16]
  remaining at 10 min: 95.5%
[17]
  half-life: 2.4 h
MIA PaCa-2 [18]
  Activity: Active
[19]
  CLint: < 23 µL/min/mg
PANC-1
  IC50: 43.3 µM
MIA PaCa-2 [20]
  Activity: Active
[21]
  Cmax: 21.2 µM
[22]
  remaining at 1 h: 75.6%
[23]
  remaining at 20 min: 94.8%
[24]
  logP: 2.47
[25]
  clearance: 110 mL/min/kg
MIA PaCa-2 [26]
  Activity: Active
[27]
  Vd: 0.9 L/kg
MIA PaCa-2 [28]
  Activity: Active
MIA PaCa-2 [29]
  Activity: Active
[30]
  t1/2: > 1 h
[31]
  IC50: 32.3 µM
[32]
  IC50: 20.8 µM
MIA PaCa-2 [33]
  inhibition: Active
[34]
  remaining at 10 min: 98.6%
MIA PaCa-2 [35]
  inhibition: Active
[36]
  IC50 at 48 h: > 50 µM
[37]
  F: 33%
[38]
  AUC(0-inf): 10 µM·h
MIA PaCa-2 [39]
  Activity: Active
MIA PaCa-2 [40]
  Activity: Active
[41]
  half-life: 2.9 h
[42]
  remaining at 0.5 h: 98%
MIA PaCa-2 [43]
  Activity: Active

## COC(=O)C(CC(=O)Nc1ccc(C(=O)c2nccn2C)cc1)c1ccc(F)cc1 (stereo unspecified)
[1]
  IC50: 37.8 µM

## COC(=O)C(CC(=O)Nc1ccc(C(=O)c2nccn2C)cc1)c1ccc(Cl)cc1 (stereo unspecified)
MIA PaCa-2 [9]
  IC50: 24.2 µM
PANC-1
  IC50: > 50 µM
[32]
  IC50: 23.4 µM
[36]
  IC50 at 48 h: 26.5 µM

## COC(=O)C(CC(=O)Nc1ccc(N2CCOCC2)c(F)c1)c1ccc(C(F)(F)F)cc1 (stereo unspecified)
[1]
  IC50: 71.5 µM
